Data as given in PubChem BioAssay (NCI).
“And” between values parts separate entries of the source, which are not always exact repeats. Equal values may be shown once.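 96-well plates; 48 h exposure; 5 concentrations. Endpoints by linear interpolation between flanking doses. Not reached: highest tested concentration assigned. The concentration for 50% growth inhibition is given as GI50. TGI marks complete inhibition of growth.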

Experiments:
Experiment in all cases: NCI-60 cell line screen, 48 h
[1] = system: EKVX NSCLC
[2] = system: K-562 leukemia
[3] = system: KM12 colon
[4] = system: MOLT-4 leukemia
[5] = system: NCI-H460 lung
[6] = system: OVCAR-3 ovarian
[7] = system: SK-MEL-5 melanoma
[8] = system: SNB-75 CNS
[9] = system: UO-31 renal

| SMILES | GI50 [1] [µM] | TGI [1] [µM] | GI50 [2] | TGI [2] [µM] | GI50 [3] [µM] | TGI [3] [µM] | GI50 [4] [µM] | TGI [4] | GI50 [5] [µM] | TGI [5] | TGI [6] | GI50 [7] [µM] | TGI [7] | GI50 [8] [µM] | TGI [8] | GI50 [9] [µM] | TGI [9] |
| --- | --- | --- | --- | --- | --- | --- | --- | --- | --- | --- | --- | --- | --- | --- | --- | --- | --- |
| CC1=CC(=O)c2[nH]c3ccccc3c2C1=O | 4.04 | 8.48 | 5.56 µM | 14 | 4.4 | 9.01 | 5.36 | 15.9 µM | 8.11 | > 25 µM | 8.02 µM | 4.22 | 7.66 µM | 4.36 | 8.28 µM | 4 | 7.4 µM |
| C(=C1/CCCCC([n+]2ccccc2)=N1)/c1ccccc1 |  | > 100 |  | > 100 |  |  |  | > 100 µM |  | > 100 µM | > 100 µM |  |  |  | > 100 µM |  | > 100 µM |
| C[P+](C)(CC(F)(F)F)c1ccccc1 |  | > 100 |  | > 100 |  | > 100 |  | > 100 µM |  | > 100 µM | > 100 µM |  | > 100 µM |  | > 100 µM |  | > 100 µM |
| C[Si](C)(C)[C@@]1([Se]c2ccccc2)CC[C@@H]1C(=O)c1ccccc1 |  | > 100 |  | > 100 |  | > 100 |  | 75.1 µM |  | > 100 µM | > 100 µM |  | 37.4 µM |  | > 100 µM |  | > 100 µM |
| O=C(O)c1oc2ccc([N+](=O)[O-])c3c2c1CCC3 |  | > 100 |  |  |  | > 100 |  |  |  | > 100 µM | > 100 µM |  |  |  | > 100 µM |  | > 100 µM |
| O=C1CCCC2COc3ccc(O)c1c32 (stereo unspecified) |  | > 100 |  | > 100 |  | > 100 |  | > 100 µM |  | > 100 µM | > 100 µM |  | > 100 µM |  | > 100 µM |  | > 100 µM |
| Cc1cc(Br)cc(C)c1NC(=O)C(=O)C(C(=O)c1ccc(Cl)c(Cl)c1)C1OC(=O)c2ccccc21 (stereo unspecified) |  | > 100 |  | > 100 |  | > 100 |  | > 100 µM |  | > 100 µM | > 100 µM |  |  |  |  |  | > 100 µM |
| O=C1CCCc2c(O)ccc(O)c21 |  | > 100 |  | > 100 |  | > 100 |  | > 100 µM |  | > 100 µM | > 100 µM |  | > 100 µM |  | > 100 µM |  | > 100 µM |
| N#CCc1nc2c(s1)C(=O)c1ccccc1C2=O |  | 49.1 |  | 39.6 |  | 36 |  | 3.48 µM |  | 47.6 µM | 29.3 µM |  | 23.7 µM |  | 49.3 µM |  | 29.3 µM |
| COc1ccc(C2CC(C)=Nc3c([nH]c(=S)[nH]c3=O)N2)cc1 (stereo unspecified) |  | 50.2 |  | 34.4 |  | 32 |  | 67.4 µM |  | 33.3 µM | 55.2 µM |  | 32.5 µM |  | 70.1 µM |  | 32.8 µM |
| CC(C)S(=O)(=O)n1c(N)nc2ccc(/C(=N/O)c3ccccc3)cc21 |  | 59.1 |  | > 100 |  | 45.8 |  | 52.2 µM |  | > 100 µM | 50.6 µM |  |  |  | 47.7 µM |  | 47 µM |
| Cc1cc(C(=O)NCCN(C)C)c2nc3ccccc3nc2c1 |  | 43.5 |  | 9.8 |  | 23.8 |  | 5.97 µM |  |  | 40.4 µM |  | > 41.6 µM |  | 48.3 µM |  | > 59.6 µM |
| Cc1ccc(C)c2sc3cc(=O)ccc-3nc12 |  | > 100 |  | 79.6 |  | > 100 |  | 69.6 µM |  | > 100 µM | > 100 µM |  | 31 µM |  | > 100 µM |  | > 100 µM |
| CCCCCCCCSC(SCCCCCCCC)=C1C(=O)N(c2ccccc2)N=C1C |  | > 100 |  | 84.6 |  | > 100 |  | 82.2 µM |  | > 100 µM | > 100 µM |  | > 100 µM |  | > 100 µM |  | > 100 µM |
| CCCC/C(C)=N/NC(N)=S |  | > 100 |  | > 100 |  | > 100 |  | > 100 µM |  | > 100 µM | > 100 µM |  | > 100 µM |  | > 100 µM |  | > 100 µM |
| COS(=O)CCOC(=O)c1ccccc1SSc1ccccc1C(=O)OCCS(=O)OC (stereo unspecified) |  | > 100 |  | 69.6 |  | > 100 |  | 22.8 µM |  | > 100 µM | 54.5 µM |  | > 100 µM |  | 70.2 µM |  | 43.5 µM |
| COc1ccc2c(c1)[n+]([O-])c(-c1ccc(Cl)c(Cl)c1)c(N)[n+]2[O-] |  | > 100 |  | > 100 |  | > 100 |  | > 100 µM |  | > 100 µM | 68 µM |  | 31.5 µM |  | > 100 µM |  | > 100 µM |
| Cc1ccc(S(=O)(=O)ON=C2CC(c3ccccc3)N(C)C(c3ccccc3)C2)cc1 (stereo unspecified) |  | > 100 | 60.1 µM and 29.3 µM | > 100 |  | 34.1 |  | 53.2 µM and > 100 µM |  | 44.1 µM and 52.7 µM | 47.8 µM and 49.4 µM |  | 32.5 µM and 31.8 µM |  | 79.3 µM and 66.9 µM |  | 35.3 µM and 49.1 µM |

| SMILES | GI50 [1] [µM] | TGI [1] [µM] | GI50 [2] | TGI [2] [µM] | GI50 [3] [µM] | TGI [3] [µM] | GI50 [4] [µM] | TGI [4] | GI50 [5] [µM] | TGI [5] | TGI [6] | GI50 [7] [µM] | TGI [7] | GI50 [8] [µM] | TGI [8] | GI50 [9] [µM] | TGI [9] |
| --- | --- | --- | --- | --- | --- | --- | --- | --- | --- | --- | --- | --- | --- | --- | --- | --- | --- |
| COc1cc(C(N)=O)c(OC)c(OC)c1OC |  | > 100 |  | > 100 |  | > 100 |  | > 100 µM |  | > 100 µM | > 100 µM |  | > 100 µM |  | > 100 µM |  | > 100 µM |
| Clc1ccc(CCN2CCOCC2)c(Cl)c1 |  | > 100 |  | > 100 |  | > 100 |  | > 100 µM |  | > 100 µM |  |  | > 100 µM |  | 83.3 µM |  | > 100 µM |
| OCC1CC2CC1C1(C2)OCCO1 (stereo unspecified) |  | > 100 |  | > 100 |  | > 100 |  | > 100 µM |  | > 100 µM | > 100 µM |  | > 100 µM |  | > 100 µM |  | > 100 µM |
| CC(C)c1cc2c(O)c(c1)Cc1cc(C(C)C)cc(c1O)Cc1cc(C(C)C)cc(c1O)Cc1cc(C(C)C)cc(c1O)Cc1cc(C(C)C)cc(c1O)Cc1cc(C(C)C)cc(c1O)C2 |  | > 100 |  | > 100 |  | > 100 |  | > 100 µM |  | > 100 µM | > 100 µM |  | > 100 µM |  | > 100 µM |  | > 100 µM |
| O=[N+]([O-])C(=C(c1ccccc1)c1ccccc1)[N+](=O)[O-] |  |  |  | > 100 |  | 30.2 |  | 22.7 µM |  | 21 µM | 35.5 µM |  |  |  | 28.5 µM |  | 36.6 µM |
| N#CC(/C(=N\NC(N)=S)C(=O)NC1C2CC3CC(C2)CC1C3)c1ccc(Cl)cc1 (stereo unspecified) |  | > 100 |  | > 100 |  | > 100 |  | > 100 µM |  | > 100 µM | > 100 µM |  | > 100 µM |  | > 100 µM |  | > 100 µM |
| CC(=O)Nc1[nH]c(=O)[nH]c(=O)c1N(C(C)=O)C(C)=O |  | > 100 |  | > 100 |  | > 100 |  | > 100 µM |  | > 100 µM | > 100 µM |  | > 100 µM |  |  |  | > 100 µM |
| c1ccc(CN(Cc2ccccn2)Cn2cccn2)nc1 |  | > 100 |  | > 100 |  | > 100 |  | > 100 µM |  | > 100 µM | > 100 µM |  | > 100 µM |  | > 100 µM |  | > 100 µM |
| CC1=C[C@H]2C[C@@]3(C)O[C@@H]([C@]4(C)CC[C@H]([C@@H](C)C(=O)O)OO4)CC3C(C)(C)[C@H]2CC1 (stereo partly specified) |  | 3.67 |  |  |  | 1.65 |  |  |  | 2.74 µM | 3.29 µM |  |  |  | 2.35 µM |  | 2.59 µM |
| Cc1nc(Nc2ccc([N+](=O)[O-])cc2)sc1C(=O)/C=C/c1ccc(N(C)C)cc1 |  | > 100 |  | > 100 |  | > 100 |  | > 100 µM |  | > 100 µM | > 100 µM |  | > 100 µM |  | > 100 µM |  | > 100 µM |
| O=C(O)CNS(=O)(=O)c1ccc(NC(=O)c2cccc([N+](=O)[O-])c2)cc1 |  | > 100 |  | > 100 |  | > 100 |  | > 100 µM |  | > 100 µM | > 100 µM |  | > 100 µM |  | > 100 µM |  | > 100 µM |
| OCC(O)C(OC1OC(CO)C(O)C(O)C1O)c1nn(-c2ccc(F)cc2)c2nc3cc(Cl)c(Cl)cc3cc12 (stereo unspecified) |  | > 100 |  | > 100 |  | > 100 |  | > 100 µM |  | > 100 µM | > 100 µM |  |  |  | > 100 µM |  | > 100 µM |
| O=C1C=Cc2noc3cccc1c23 |  | 10.2 |  | 9.65 |  | 19.1 |  | > 100 µM |  |  | 10.9 µM |  | 24.2 µM |  | 25.8 µM |  | 15.3 µM |
| COc1ccc(-c2nc(N)nc(-c3cc(C)ccc3O)c2Cl)cc1 |  | > 100 |  | > 100 |  | > 100 |  | > 100 µM |  | > 100 µM | 89.8 µM |  |  |  | 63.9 µM |  | > 100 µM |
| O=C(O)C1C2CC3CC2CC31 (stereo unspecified) |  | > 100 |  | > 100 |  | > 100 |  | > 100 µM |  | > 100 µM | > 100 µM |  | > 100 µM |  | > 100 µM |  | > 100 µM |
| COc1ccc(/C=C/CO)cc1OC |  | > 100 |  | > 100 |  | > 100 |  | > 100 µM |  |  | > 100 µM |  | > 100 µM |  | > 100 µM |  | > 100 µM |
| CN(C)/C(=N/C(=O)Nc1ccccc1)SCc1ccccc1 |  | > 100 |  | > 100 |  | > 100 |  | > 100 µM |  |  | > 100 µM |  | > 100 µM |  | > 100 µM |  | > 100 µM |
| S=C1OC2C3C4CC5C3C(O1)C1C5C4C21 (stereo unspecified) |  | > 100 |  |  |  | > 100 |  | > 100 µM |  | > 100 µM | > 100 µM |  | > 100 µM |  | > 100 µM |  | > 100 µM |
